# Patent US10941379B2, “Microbial system for biosynthesis of natural and engineered products coupled to in situ extraction in supercritical CO2” (Massachusetts Institute of Technology, priority 2016, dated 2021)
# Legend:
# Type in all cases: cell-based, Bacillus megaterium
# B. megaterium DSM319 = experiment: Biolog GenIII sole carbon source growth; conditions: no metals added; Table 10
# Experimental: (§1) Plates were incubated at 37° C. on a plate shaker at 200 rpm and assayed for growth using NADH-dependent colorimetric changes measured by OD490 on a microplate reader (BioTek Synergy 2; BioTek; Winooski, Vt.).
# B. megaterium SR7 [1] = experiment: Biolog GenIII sole carbon source growth; conditions: for Growth on Biolog sole carbon source, SR7: no metals added, Table 10; for Growth in carbon source Biolog plate, +Metals: trace metals-amended plate; for Growth in carbon source Biolog plate, +Metals / Growth in carbon source Biolog plate, I / Growth in carbon source Biolog plate, II: Table 11; for Growth in carbon source Biolog plate, I: unamended plate trial I; for Growth in carbon source Biolog plate, II: unamended plate trial II
# Experimental: as §1
# B. megaterium QM B1551 = experiment: Biolog GenIII sole carbon source growth; conditions: no metals added; Table 10
# Experimental: as §1
# B. megaterium SR7 [2] = experiment: SR7 antibiotic sensitivity in LB (OD600 vs unamended control); conditions: for % Control: (OD600 AB/OD600 Control)*100 in LB, average n = 2, 24 hours, 37° C.; for Sensitivity: LB
# Experimental: To help guide optimization of growth conditions for strain SR7, physiological tests were conducted under aerobic conditions. To determine tolerance for pH, salinity and bicarbonate, high throughput culturing was done in 96 well plates and scored for growth by OD600 using a microplate reader (BioTek Synergy 2; BioTek; Winooski, Vt.). 200 uL LB solutions/well were inoculated in triplicate with 10^4 spores/ml (based on SR7 spore stock filter counts) and incubated on a plate rocker at 37° C. with unamended positive and cell-free negative LB controls. Tests for pH tolerance (pH 2-10) were conducted in LB medium amended with HCl or NaOH. The effect of salinity and bicarbonate on growth was determined by adding NaCl (1-10%) and NaHCO3 (0.1-0.5M), respectively, to LB media. Optimal SR7 growth temperature was tested by inoculating 10^4 spores/ml in 5 ml of LB in triplicate at temperatures of 9-55° C. Cultures and cell-free negative controls were incubated without shaking, with subsamples taken for periodic OD600 measurements. SR7 antibiotic sensitivity was determined by supplementing 5 ml LB with ampicillin (5-50 μg/ml), chloramphenicol (3.5-35 μg/ml), kanamycin (5-50 μg/ml), spectinomycin (10-100 μg/ml), streptomycin (10-100 μg/ml), or tetracycline (1.5-15 μg/ml).
# B. megaterium SR7 [3] = experiment: Biolog GenIII Microplate growth sensitivity assay; conditions: for % Control: (OD490 AB/OD490 Control)*100 for Biolog, average n = 2, Biolog does not publish concentrations; for Sensitivity: Biolog, concentration not published; for SR7 growth inhibition in Biolog assays: result in words; as to sensitivity: key: S = sensitive; R = resistant
# Experimental: as §1
Compound,"Growth on Biolog sole carbon source, DSM319 (B. megaterium DSM319)","Growth on Biolog sole carbon source, SR7 (B. megaterium SR7 [1])","Growth in carbon source Biolog plate, +Metals (B. megaterium SR7 [1])","Growth in carbon source Biolog plate, I (B. megaterium SR7 [1])","Growth in carbon source Biolog plate, II (B. megaterium SR7 [1])","Growth on Biolog sole carbon source, QM B1551 (B. megaterium QM B1551)",% Control (B. megaterium SR7 [3]),Sensitivity (B. megaterium SR7 [3]),further results
"CC(O)CC(=O)O (racemic) [β-Hydroxy-D,L-Butyric Acid]",+,+,+,+,+,+++,,,
CC1(C)S[C@@H]2[C@H](NC(=O)[C@H](N)c3ccccc3)C(=O)N2[C@H]1C(=O)O [Ampicilin],,,,,,,,,% Control (B. megaterium SR7 [2]; 50 ug/mL): 8%; Sensitivity (B. megaterium SR7 [2]; 50 ug/mL): S
C[C@H]1[C@H](NC(=O)/C(=N\OC(C)(C)C(=O)O)c2csc(N)n2)C(=O)N1S(=O)(=O)O [Aztreonam],,,,,,,10%,S,
O=C(O)CC(Br)C(=O)O (centres unmarked) [Bromo-Succinic Acid],+++,+,+,+,+,+,,,
O=C(N[C@H](CO)[C@H](O)c1ccc([N+](=O)[O-])cc1)C(Cl)Cl [Chloramphenicol],,,,,,,,,% Control (B. megaterium SR7 [2]; 35 ug/mL): 9%; Sensitivity (B. megaterium SR7 [2]; 35 ug/mL): S
O=C(O)[C@H](O)[C@@H](O)[C@H](O)[C@H](O)CO [D-Gluconic Acid],+++,+,+++,+,+,+,,,
OC[C@@H](O)[C@@H](O)[C@H](O)[C@H](O)CO [D-Mannitol],+++,+,+,+,+,+,,,
O=C(O)[C@@H](O)[C@@H](O)[C@H](O)[C@@H](O)C(=O)O [D-Saccharic Acid],−,−,−,−,+,+++,,,
"N[C@H](CO)C(=O)O [D-Serine, reference compound]",,,−,−,−,,10%,S,SR7 growth inhibition in Biolog assays (B. megaterium SR7 [3]): inhibited
CC(=O)O[C@H]1C[C@@]2(C)[C@@H](C[C@@H](O)[C@H]3[C@@]4(C)CC[C@@H](O)[C@@H](C)[C@@H]4CC[C@@]32C)/C1=C(\CCC=C(C)C)C(=O)O [Fusidic Acid],,,,,,,9%,S,
NC[C@H]1O[C@H](O[C@H]2[C@H](O)[C@@H](O[C@H]3O[C@H](CO)[C@@H](O)[C@H](N)[C@H]3O)[C@H](N)C[C@@H]2N)[C@H](O)[C@@H](O)[C@@H]1O [Kanamycin],,,,,,,,,% Control (B. megaterium SR7 [2]; 5 ug/mL): 9%; Sensitivity (B. megaterium SR7 [2]; 5 ug/mL): S
N[C@@H](CC(=O)O)C(=O)O [L-Aspartic Acid],+++,+,+++,+,+,+,,,
N[C@@H](CCC(=O)O)C(=O)O [L-Glutamic Acid],+++,+,+++,+,+,+++,,,
N[C@@H](Cc1c[nH]cn1)C(=O)O [L-Histidine],+++,+,+,+,+,+,,,
C[C@H](O)C(=O)O [L-Lactic Acid],+++,+,+,+,+,+++,,,
O=C(O)C[C@H](O)C(=O)O [L-Malic Acid],+++,+++,+,,+++,+++,,,
CCC[C@@H]1C[C@@H](C(=O)N[C@@H]([C@H]2O[C@H](SC)[C@H](O)[C@@H](O)[C@H]2O)[C@@H](C)O)N(C)C1 [Lincomycin],,,,,,,11%,S,
CN(C)c1ccc(O)c2c1C[C@H]1C[C@H]3[C@H](N(C)C)C(O)=C(C(N)=O)C(=O)[C@@]3(O)C(O)=C1C2=O [Minocycline],,,,,,,,S,
CC(=O)N[C@H]1C(O)O[C@H](CO)[C@@H](O)[C@@H]1O (stereo partly drawn) [N-Acetyl-D-Glucosamine],+++,+,,+,+,+,,,
CCn1cc(C(=O)O)c(=O)c2ccc(C)nc21 [Nalidixic Acid],,,,,,,14%,S,
CCCCC(CC)CCC(CC(C)C)OS(=O)(=O)[O-].[Na+] (centres unmarked) [Niaproof 4],,,,,,,9%,S,SR7 growth inhibition in Biolog assays (B. megaterium SR7 [3]): inhibited
CO[C@H]1/C=C/O[C@@]2(C)Oc3c(C)c([O-])c4c(O)c(cc(O)c4c3C2=O)NC(=O)/C(C)=C\C=C\[C@H](C)[C@H](O)[C@@H](C)[C@@H](O)[C@@H](C)[C@H](OC(C)=O)[C@@H]1C.[Na+] [Rifamycin SV],,,,,,,11%,S,
CN[C@@H]1[C@H](O)[C@H](NC)[C@H]2O[C@@]3(O)C(=O)C[C@@H](C)O[C@H]3O[C@@H]2[C@H]1O [Spectinomycin],,,,,,,,,"% Control (B. megaterium SR7 [2]; 100 ug/mL): 47%; Sensitivity (B. megaterium SR7 [2]; 100 ug/mL): S/R; SR7 sensitivity to antibiotics (B. megaterium SR7 [2]; result in words, summary of Table 9): intermediate sensitivity"
[H]/N=C(/N)N[C@H]1[C@H](O)[C@@H](O)[C@H](O[C@@H]2O[C@@H](C)[C@](O)(C=O)[C@H]2O[C@@H]2O[C@@H](CO)[C@H](O)[C@@H](O)[C@@H]2NC)[C@@H](N/C(N)=N\[H])[C@@H]1O [Streptomycin],,,,,,,,,% Control (B. megaterium SR7 [2]; 10 ug/mL): 10%; Sensitivity (B. megaterium SR7 [2]; 10 ug/mL): S
OC[C@H]1O[C@@](CO)(O[C@H]2O[C@H](CO)[C@@H](O)[C@H](O)[C@H]2O)[C@@H](O)[C@@H]1O [Sucrose],+++,−,+,−,+,+,,,
CN(C)[C@@H]1C(O)=C(C(N)=O)C(=O)[C@@]2(O)C(O)=C3C(=O)c4c(O)cccc4[C@@](C)(O)[C@H]3C[C@@H]12 [Tetracycline],,,,,,,,,% Control (B. megaterium SR7 [2]; 1.5 ug/mL): 11%; Sensitivity (B. megaterium SR7 [2]; 1.5 ug/mL): S
CO[C@H]1C[C@H](O[C@H]2[C@H](C)[C@@H](O[C@@H]3O[C@H](C)C[C@H](N(C)C)[C@H]3OC(C)=O)[C@@H](C)C[C@@]3(CO3)C(=O)[C@H](C)[C@@H](OC(C)=O)[C@@H](C)[C@@H](C)OC(=O)[C@@H]2C)O[C@@H](C)[C@@H]1OC(C)=O [Troleandomycin],,,,,,,9%,S,
CN[C@H](CC(C)C)C(=O)N[C@H]1C(=O)N[C@@H](CC(N)=O)C(=O)N[C@H]2C(=O)N[C@H]3C(=O)N[C@H](C(=O)N[C@H](C(=O)O)c4cc(O)cc(O)c4-c4cc3ccc4O)[C@H](O)c3ccc(c(Cl)c3)Oc3cc2cc(c3O[C@@H]2O[C@H](CO)[C@@H](O)[C@H](O)[C@H]2O[C@H]2C[C@](C)(N)[C@H](O)[C@H](C)O2)Oc2ccc(cc2Cl)[C@H]1O [Vancomycin],,,,,,,10%,S,
Gentiobiose,,,+,+,+,,,,
Tween 40,,,−,−,+,,,,
